Data as given in paper PMC12427806, “Calpain-1 and Calpain-2 Promote Breast Cancer Metastasis” (Cells, 2025).
Where a SMILES comes first, the peptide text is derived from it. [ ]: non-standard residue; d: D form. The star is where a group is joined. 5FAM = O=C1OC2(c3ccc(O)cc3Oc3cc(O)ccc32)c2ccc(C(=O)*)cc21

Key:
MDA-MB-231 cells = experiment: Single-cell migration on collagen (IncuCyte video microscopy, DiPer MSD analysis), WT cells; type: cell-based, human; conditions: WT + mB27, 4 µM; Std. Error 0.6565; WT + vehicle slope 14.65
Description: (§1) For the migration assay, plates were coated with 15 µg/mL rat tail collagen type 1 (BD-Biosciences, Franklin Lakes, NJ, USA). Cells were seeded at 1000 cells per well. Plates were imaged using the IncuCyte Live-Cell Analysis System (Essen Bioscience, Ann Arbor, MI, USA) every 10 min for 24 h. Cell migration was tracked using the “Track Object” program in Metamorph 7.8 (Molecular Devices, LLC., San Jose, CA, USA). The resulting coordinates were analyzed with the DiPer program to measure speed and directional persistence of migration. Experiments were conducted in triplicate, each with at least 20 cells per genotype. The results are presented as the mean ± standard error of the mean. […]
(§2) Migration propensity of calpain-deficient cells was measured by IncuCyte video microscopy of single-cell trajectories on a collagen substrate, which were then analyzed according to an established protocol using three measures of migration: (1) speed of migration (a raw value of displacement from frame to frame); (2) directionality (a ratio of cell displacement to path); and (3) mean square displacement (MSD, how much area a migrating cell has covered).
(§3) To evaluate the effect of this calpain inhibitor, we first measured MDA-MB-231 cancer cell migration in the presence of 4 µM mB27 (Figure 5a,b). […] A thorough quantification and statistical analysis of cell migration are presented in Supplementary Information 12.

[1] = tested on: CAPNS1 KO MDA-MB-231 cells; experiment: Single-cell migration on collagen (IncuCyte video microscopy, DiPer MSD analysis), CAPNS1 KO cells; type: cell-based, human
Description: as §1, §2, §3

WT MDA-MB-231 tumors = experiment: Orthotopic engraftment resect-and-wait model of mammary tumor growth and lung metastasis; type: in vivo, Rag2-/- IL2Rγc-/- mice; conditions: n = 10
Description: Cells were washed, counted, and resuspended in PBS to achieve a concentration of 1,000,000 cells in 40 µL and placed on ice and supplemented with Growth Factor Reduced Matrigel (Corning Inc., Corning, NY, USA, catalog number 354,230) in a 10:40 Matrigel/cell suspension ratio. The resulting mixture was maintained on ice until the engraftment. Matrigel was included in the engraftment suspension to promote initial cell retention in the engrafted bolus in the mammary fat pad and to ensure consistent tumor onset. While MDA-MB-231 cells can form tumors without matrix in Rag2^-/- IL2Rγc^-/- mice, the addition of Matrigel could reduce experimental variability and mimic the basement membrane or extracellular matrix components of the tumor microenvironment.
All animal procedures were approved by the university animal care committee in accordance with guidelines from the Canadian Council on Animal Care. […]
The wound clips were removed one week after the engraftment surgery, and the tumor size was measured daily until it reached 600 mm^3. […] When tumors reached the maximum volume (19 to 22 days after the engraftment surgery, determined individually for every mouse), they were resected by recovery surgery, and mice were then monitored for 12 days before being euthanized with CO2 and cervical dislocation and assessed for metastasis. […]

`CC[C@H](C)[C@H](NC(=O)[C@H](Cc1ccc(O)cc1)NC(=O)[C@@H](NC(=O)[C@H](CO)NC(=O)[C@H](CO)NC(=O)[C@H](CCSC)NC(=O)[C@H]1CCCN1C(=O)[C@@H](CC(=O)O)NC(=O)c1ccc2c(c1)C(=O)OC21c2ccc(O)cc2Oc2cc(O)ccc21)[C@@H](C)O)C(=O)N[C@@H](CCC(=O)O)C(=O)N[C@@H](CCC(=O)O)C(=O)N[C@@H](CC(C)C)C(=O)NCC(=O)N[C@@H](CCCCN)C(=O)N[C@@H](CCCNC(=N)N)C(=O)N[C@@H](CCC(=O)O)C(=O)N[C@H](C(=O)N[C@H](C(=O)N[C@H](C(=O)N1CCC[C@H]1C(=O)N1CCC[C@H]1C(=O)N[C@@H](CCCCN)C(=O)N[C@@H](Cc1ccc(O)cc1)C(=O)N[C@@H](CCCNC(=N)N)C(=O)N[C@@H](CCC(=O)O)C(=O)N[C@@H](CC(C)C)C(=O)N[C@@H](CC(C)C)C(=O)N[C@@H](C)C(=O)N[C@@H](CCCNC(=N)N)C(=O)N[C@@H](CCCNC(=N)N)C(=O)N[C@@H](CCCNC(=N)N)C(=O)N[C@@H](CCCNC(=N)N)C(=O)N[C@@H](CCCNC(=N)N)C(=O)N[C@@H](CCCNC(=N)N)C(=O)N[C@H](CCCNC(=N)N)C(=O)N[C@H](CCCNC(=N)N)C(=O)N[C@H](CCCNC(=N)N)C(=O)O)[C@@H](C)CC)[C@@H](C)O)C(C)C` [mB27] (5FAM-[dD][dP]MSSTYIEELGKREVTIPPKYRELLARRRRRR[dR][dR][dR]-OH; N-terminus and C-terminus assumed) was tested, and the “Best-fit slope of MSD” value (MDA-MB-231 cells) was 7.652, the “Best-fit slope of MSD” value ([1]; CAPNS1 KO + mB27, 4 µM, Std. Error 0.4558, CAPNS1 KO + vehicle slope 3.642) was 3.365 and the “Effect of peptide on migration of CAPNS1 KO cells (in words)” value ([1]; CAPNS1 KO MDA-MB-231 cells, 4 µM peptide, ANCOVA p = 0.6134) was “no effect”. The Tumor growth rate (WT MDA-MB-231 tumors; 5 mg/kg/day intraperitoneally for 14 days from 50 mm^3 to 600 mm^3 tumor volume, vehicle 0.431 ± 0.046, p = 0.8554) was 0.428 ± 0.024 mm diameter per day and the Lung metastasis (WT MDA-MB-231 tumors; 5 mg/kg/day intraperitoneally for 14 days, tumor resection at 600 mm^3, lungs assessed 12 days later, vehicle 1.12 ± 1.35, p = 0.102 (not significant)) was 0.34 ± 0.20 metastases per mm^2.
